Results from patent US20120003661A1, “METHODS AND DEVICES FOR THE SELECTIVE DETECTION OF MICROORGANISMS” (C3 JIAN, INC., priority 2010, published 2012).
Entries after “also recorded” stand apart in the source; their conditions may differ.

tested on: bacteria, fungi, and/or yeasts; type: binding; settings: microorganism(s) listed as target(s) of the targeting peptide; wrapped target lists given cell by cell

Row | Substance | Target(s)
1 | PF-138 (AVHHSLLFR) | S. epidermidis, M. luteus, P. mirabilis,; also recorded: E. coli, C. albicans,; also recorded: MRSA, C. jeikeium, C. jejuni
2 | PF-044 (KLKKYIHKPD) | S. epidermidis, M. luteus, MRSA,; also recorded: C. jeikeium
3 | 1T-290 (IINQLNLILLRLMEILIL) | A. naeslundii, F. nucleatum, P. gingivalis,; also recorded: S. gordonii, S. mitis,; also recorded: S. mutans, S. oralis, S. salivarious,; also recorded: S. sanguinis
4 | PF-134 (GKAMKRQDCSAL) | S. epidermidis, C. jeikeium
5 | 1T-260 (NILYFIHDENQWEPQKAEIFRGSIKHCAWLSS) | A. naeslundii, P. gingivalis, S. epidermidis,; also recorded: S. gordonii, S. mitis,; also recorded: S. mutans, S. oralis, S. sanguinis
6 | 1T-304 (STAGEASRRTASEASRRTAAKLRG) | P. gingivalis
7 | PF-069 (FDPVPLKKDKSASKHSHKHNH) | E. faecalis, C. jejuni
8 | PF-157 (HTAVVWLAGVSGCVALSHCEPA) | S. epidermidis, M. luteus, P. mirabilis,; also recorded: E. coli, P. aeruginosa,; also recorded: C. albicans, MRSA, S. pneumoniae,; also recorded: E. faecalis, C. jeikeium,; also recorded: C. jejuni
9 | PF-068 (SHLINNFGLSVINPSTPICLNFSPVFNLLTVYGITCN) | S. epidermidis, M. luteus, P. mirabilis,; also recorded: E. coli, P. aeruginosa,; also recorded: C. albicans, MRSA, S. pneumoniae,; also recorded: E. faecalis, C. jeikeium
10 | PF-007 (MGIIAGIIKVIKSLIEQFTGK) | S. epidermidis, M. luteus, E. coli,; also recorded: P. aeruginosa, C. albicans,; also recorded: MRSA, S. pneumoniae, E. faecalis,; also recorded: C. jeikeium
11 | PF-141 (VVRRFQGM) | C. albicans hyphae; also recorded: S. epidermidis, M. luteus, C. albicans,; also recorded: MRSA, C. jeikeium
12 | PF-055 (GHVFNGNNKRNL) | S. mutans
13 | PF-076 (LYQYELLSKEEYLKCTLIINQRRNEQK) | S. epidermidis, M. luteus, E. coli,; also recorded: P. aeruginosa, C. albicans,; also recorded: MRSA, S. pneumoniae, E. faecalis,; also recorded: C. jeikeium, C. jejuni
14 | 1T-267 (RIKEERKNRSYKFFIWRLFDEKTGFI) | A. naeslundii, F. nucleatum, P. gingivalis,; also recorded: T. denticola, S. mitis,; also recorded: S. mutans, S. oralis, S. sanguinis
15 | 1T-250 (LVQGDTILIENHVGTPVKDDGKDCLIIREADVLAVVND) | S. mitis, S. mutans, S. oralis
16 | PF-043 (MIKNETAYQMNELLVIRSAYAK) | M. luteus, C. jejuni
17 | PF-123 (TTRPQVAEDRQLDDALKETFPASDPISP) | M. luteus, E. coli
18 | PF-128 (GIKVVAARFEEIQFSENFDSIILA) | M. luteus, P. aeruginosa, E. faecalis
19 | PF-075 (FVNSLIMKDLSDNDMRFKYEYYNREKDT) | M. luteus, E. coli, P. aeruginosa,; also recorded: MRSA, C. jeikeium
20 | PF-038 (MAYKDEGKETKFAVKGYKD) | M. luteus
21 | PF-046 (LDFYLTKHLTLML) | E. coli, E. faecalis, C. jeikeium
22 | PF-161 (RGRALASTATTRPARRRR) | S. epidermidis, M. luteus, E. coli,; also recorded: C. jejuni

same assay, conditions: microorganism(s) that the targeting peptide binds, as listed in Table 2

Row | Substance | Target(s)
23 | PF-C145 (YGKESDP) | A. naeslundii, F. nucleatum, P. gingivalis,; also recorded: S. mutans, T. denticola
24 | PF-C134 (NELMKYPATLTATATTPGIKYSHLCSVCL) | A. naeslundii, F. nucleatum, P. gingivalis,; also recorded: S. mutans, T. denticola
25 | PF-C120 (ASLSTMTFKVMELKELIILLCGLTMLMIQTEFV) | A. naeslundii, F. nucleatum, P. gingivalis,; also recorded: S. mutans, T. denticola
26 | PF-787 (MTERQRRALLKQHPEVVSWSDYLEKRKRRTGTAG) | Mycobacteria spp.
27 | PF-C003 (FCSVDHDVITIAADHVKQGAEA) | A. naeslundii, P. gingivalis, S. mutans
28 | PF-C008 (AQPRRTWLVNFGEVPSPGLTNDGMPDH) | A. naeslundii
29 | PF-C069 (NALMLREMQLAKNIKVEVTDVLSNKKYC) | A. naeslundii, F. nucleatum, P. gingivalis,; also recorded: S. mutans, T. denticola

same assay, conditions: microorganism(s) the targeting peptide binds, as listed in Table 2

Row | Substance | Target(s)
30 | 1T-234 (DNFYLILKMEERGKSKKTSQTRGFRAFFDIIRKKIKKEDGK) | A. naeslundii, F. nucleatum, P. gingivalis,; also recorded: S. epidermidis, S. gordonii,; also recorded: S. mitis, S. mutans, S. oralis,; also recorded: S. salivarious, S. sanguinis
31 | 1T-67 (GQRQRLTCGRVSGCSEGPSREAAR) | S. aureus, S. epidermidis, C. jeikeium,; also recorded: C. xerosis, C. striatum,; also recorded: P. aeruginosa
32 | 1T-130 (QKIIDMSKFLFSLILFIMIVVIYIGKSIGGYSAIVSSIMLELDTVLYNKKIFFIYK) | A. naeslundii, F. nucleatum, P. gingivalis,; also recorded: S. epidermidis, S. gordonii,; also recorded: S. mitis, S. mutans, S. oralis,; also recorded: S. salivarious, S. sanguinis
33 | 1T-96 (VAGACAQPFGGQ) | S. gordonii, S. mitis, S. mutans,; also recorded: S. oralis, S. sanguinis
34 | 1T-167 (SRMSEHSPAGLVFEVGPMDKGSFIILDSYHPTVKK) | A. naeslundii, F. nucleatum, P. gingivalis,; also recorded: S. epidermidis, S. gordonii,; also recorded: S. mitis, S. mutans, S. oralis,; also recorded: S. salivarious, S. sanguinis
35 | 1T-190 (IQIIVNAFVEKDKTGAVIEVLYASNNHEKVKAKYEELVAIS) | A. naeslundii, F. nucleatum, P. gingivalis,; also recorded: S. epidermidis, S. gordonii,; also recorded: S. mitis, S. mutans, S. oralis,; also recorded: S. salivarious, S. sanguinis
36 | 1T-135 (FESLLPQATKKIVNNKGSKINKIF) | A. naeslundii, P. gingivalis, S. epidermidis,; also recorded: S. gordonii, S. mitis,; also recorded: S. mutans, S. oralis, S. salivarious,; also recorded: S. sanguinis
37 | 1T-105 (GEGLPPPVLHLPPPRMSGR) | S. epidermidis, S. gordonii, S. mitis,; also recorded: S. mutans, S. oralis
38 | 1T-202 (LCRLEKLCKQFLRQDKVVTYYLMLPYKRAIEAFYQELKERS) | A. naeslundii, F. nucleatum, P. gingivalis,; also recorded: S. epidermidis, S. gordonii,; also recorded: S. mitis, S. mutans, S. oralis,; also recorded: S. salivarious, S. sanguinis
39 | 1T-219 (RNINVSATFITEKSLV) | S. sanguinis
40 | 1T-77 (EMRISRIILDFLFLRKK) | S. pneumoniae
41 | 1T-195 (AASGFTYCASNGVWHPY) | S. mutans
42 | 1T-19 (PGAFRNPQMPRG) | S. aureus, S. epidermidis, P. aeruginosa
43 | 1T-84 (FRKKRYGLSILLWLNAFTNLVNSIHAFYMTLF) | S. pneumoniae
44 | 1T-57 (RLEYRRLETQVEENPESGRRPMRG) | P. aeruginosa
45 | 1T-243 (SENIARFAAAFENEQVVSYARWFRRSWRGSGSSSRF) | A. naeslundii, P. gingivalis, S. epidermidis,; also recorded: S. gordonii, S. mitis,; also recorded: S. mutans, S. oralis, S. salivarious,; also recorded: S. sanguinis
46 | 1T-174 (SGGSDTDGSSSGEPGSHSGDL) | A. naeslundii, F. nucleatum, P. gingivalis,; also recorded: T. denticola, S. gordonii,; also recorded: S. mitis, S. mutans, S. oralis,; also recorded: S. salivarious, S. sanguinis
47 | 1T-248 (IGGALNSCG) | S. sanguinis
48 | 1T-144 (IIELHPKSWTQDWRCSFL) | A. naeslundii, F. nucleatum, P. gingivalis,; also recorded: T. denticola, S. gordonii,; also recorded: S. mitis, S. mutans, S. oralis,; also recorded: S. salivarious, S. sanguinis
49 | 1T-128 (SGSAIRMLEIATKMLKR) | A. naeslundii, P. gingivalis, S. epidermidis,; also recorded: S. gordonii, S. mitis,; also recorded: S. mutans, S. oralis, S. salivarious,; also recorded: S. sanguinis
